Source: PubChem BioAssay (NCI)
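Dose response: 5 concentrations. Exposure: 48 h. Format: 96-well plates. Endpoint: linear interpolation; highest concentration if not reached. GI50 marks 50% less growth. TGI: total growth inhibition.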

Tests used:
Assay in all cases: NCI tumour cell line growth inhibition, 48 h
[1] = tested on: TK-10 renal
[2] = tested on: 786-0 renal
[3] = tested on: SK-MEL-5 melanoma
[4] = tested on: UO-31 renal
[5] = tested on: M14 melanoma
[6] = tested on: OVCAR-5 ovarian
[7] = tested on: OVCAR-8 ovarian
[8] = tested on: U251 CNS
[9] = tested on: UACC-62 melanoma
[10] = tested on: MDA-MB-231 breast

Compound | GI50 [1] [µM] | TGI [1] [µM] | GI50 [2] [µM] | TGI [2] [µM] | GI50 [3] [µM] | TGI [3] [µM] | GI50 [4] [µM] | TGI [4] [µM] | GI50 [5] [µM] | TGI [5] [µM] | GI50 [6] [µM] | TGI [6] [µM] | GI50 [7] [µM] | TGI [7] [µM] | GI50 [8] [µM] | TGI [8] [µM] | GI50 [9] [µM] | TGI [9] [µM] | GI50 [10] [µM] | TGI [10] [µM]
COc1cc(/C=C/C(=O)c2cccc(-n3cc(-c4ccccc4)[nH]c3=O)c2)ccc1O | 9.52 | 31.2 | 2.37 | 7.93 | 2.48 | 6.65 | 2.01 | 8.73 | 3.57 | 18 | 6.25 | 14.1 | 3.35 | 17.8 | 2.5 | 7.9 | 2.33 | 7.74 | 3.36 | 15.2
COc1cc2c(cc1OCCCN1CCN(CCCOc3cc4c(cc3OC)C(=O)N3C[C@H](F)C[C@H]3C=N4)CC1)N=C[C@@H]1C[C@@H](F)CN1C2=O | 0.309 | 3.28 | 0.0263 | 0.763 |  |  | 0.823 | 2.65 | 0.0441 | 0.198 | 0.198 | 3.24 | 0.134 | 16.2 |  |  | 0.0223 | 0.145 | 0.116 | 0.852
O=c1oc2cc(O)ccc2cc1-c1nc2ccccc2o1 |  | > 100 |  | > 100 |  | 40.8 |  | 80.2 |  | > 100 |  | > 100 |  | > 100 |  | 93.5 |  | > 100 |  | > 100
CCn1cnc(C[C@H](NC(=O)[C@@H](NC(=O)Nc2cc(C(F)(F)F)cc(C(F)(F)F)c2)C(C)(C)C)C(=O)OC)c1 | > 10 | > 10 | > 10 | > 10 | > 10 | > 10 | > 10 | > 10 | > 10 | > 10 | > 10 | > 10 | > 10 | > 10 | > 10 | > 10 | > 10 | > 10 | > 10 | > 10
O=C1CC[C@@H]2[C@H]3CCC(=O)c4c3c(c3cccc(O)c3c4O)O[C@@]23C(=O)c2cccc(O)c2C(O)=C13 | > 100 | > 100 | > 100 | > 100 | > 100 | > 100 | > 100 | > 100 |  |  | > 100 | > 100 | > 100 | > 100 | > 100 | > 100 | > 100 | > 100 | > 100 | > 100
CCc1n(Cc2ccc3ccccc3c2)cc[n+]1Cc1ccc2ccccc2c1 | 1.65 | 3.32 | 1.52 | 3.04 | 0.361 | 1.28 | 2.22 | 8.86 | 1.21 | 2.96 | 1.2 | 2.75 | 0.76 | 3.13 | 0.578 | 2.2 | 0.507 | 2 | 0.392 | 1.44
Cc1nc2ccccc2c(/C=C/c2ccc(C(F)(F)F)cc2)c1C(=O)/C=C/c1ccccc1 | 2.05 | 3.63 | 1.58 | 3.07 | 1.69 | 3.05 | 1.08 | 2.27 |  |  | 1.86 | 3.35 | 1.64 | 4.91 | 1.47 | 2.92 | 1.49 | 3 | 1.74 | 3.65
COC(=O)c1cc2c3cc(Cl)ccc3[nH]c2c2ncccc12 | > 100 | > 100 | > 100 | > 100 | > 100 | > 100 | > 100 | > 100 |  |  | > 100 | > 100 | > 100 | > 100 | > 100 | > 100 | > 100 | > 100 | > 100 | > 100
O=C(Nc1cccc2[nH]c(C(F)(F)F)nc12)c1ccc(Br)cc1F | 3.43 | 9.55 | 4.05 | 15.1 | 1.85 | 3.94 | 1.98 | 7.36 | 3.83 | 14.5 | 5.19 | 23.5 | 3.14 | 15.6 |  |  | 3.26 | 13.5 | 2.17 | 6.19
Nc1ccccc1SC(CC(=O)c1ccccc1)c1c(Cl)cccc1Cl (stereo not drawn) | 4.71 | 13.3 | 9.73 | 23.2 | 9.17 | 21.2 | 1.27 | 4.64 | 3.25 | 12.9 | 4.29 | 15.7 | 2.63 | 9.61 | 4.24 | 15.3 |  |  | 3.86 | 20.4
O=C1c2c[n+](Cc3ccccc3)ccc2-c2nc3ccccc3c3ccnc1c23 | 0.818 | 2.8 | 0.829 | 2.76 | 0.439 | 1.04 | 0.756 | 17 | 0.208 | 0.969 | 1.63 | 10.5 |  |  | 0.541 | 1.64 | 0.594 | 1.78 | 0.711 | 3.21
C=CC(=O)N1CCN(c2nc(OC[C@@H]3CCCN3C)nc3c(F)c(-c4nc(N)cc(C)c4C(F)(F)F)c(Cl)cc23)[C@@H](C)C1 | 2.01 | 4.53 | 3.6 | 15.3 | 1.74 | 3.33 | 1.92 | 5.01 | 1.85 | 3.57 | 9.68 | 21.7 | 1.64 | 3.09 | 1.96 | 5.05 |  |  | 1.74 | 3.27
COc1ccc(/C(=N/O)c2cc(F)c(F)c(OC)c2F)cc1O | 17.9 | > 100 | 10.5 | > 100 | 0.599 | 17.3 | 1.36 | 90.9 | 0.344 | > 100 |  |  | 3.1 | > 100 | 0.634 | > 100 |  |  | 2.46 | > 100
